Where two headings read alike, the source gives them in different places.
Legend:
[1] = target: T1, Biotinylated KRAS G12C protein (KRAS G12C/C51S/C80L/C118S, SEQ ID NO: 1) (Homo sapiens, UniProt P01116, C118S/C51S/C80L/G12C); test: SOS-catalyzed nucleotide exchange assay (TR-FRET); assay type: biochemical; settings: in vitro apparent potency; preincubation time of 60 minutes prior to addition of SOS
T1 construct: 183 amino acids; biotin on K10
Experimental: The SOS-catalyzed nucleotide exchange assay utilizes a preformed complex of recombinant biotinylated KRAS protein containing G12C/C51S/C80L/C118S mutations (183 amino acids; biotin on K10; leader sequence which is an AviTag; referred to as SEQ ID NO: 1 or “Biotinylated KRAS G12C protein” hereafter), Bodipy-GDP, and Terbium-streptavidin. Compounds are added to this complex and then after 60 minutes, the mixture is treated with recombinant SOS protein and unlabeled GTP. Small molecule inhibitors stabilize the Bodipy-GDP complex whereas the untreated protein rapidly exchanges Bodipy-GDP for unlabeled GTP resulting in reduced TR-FRET signal.
Biotinylated KRAS G12C protein (SEQ ID NO: 1) is diluted to 2 μM in an EDTA buffer (20 mM HEPES, 150 mM sodium chloride, 10 mM EDTA, and 0.01% Tween) and incubated at room temperature for one hour. This mixture is then further diluted to 90nM in an assay buffer (20 mM HEPES, 150 mM sodium chloride, 10 mM magnesium chloride, and 0.005% Tween) containing 15 nM of Terbium-Streptavidin (Invitrogen, catalog #PV3577) and 900 nM of Bodipy-GDP and incubated at room temperature for six hours. This solution is referred to as Biotinylated KRAS G12C mixture.
Each test compound (10 mM stock in DMSO) is diluted in DMSO to make a 10-point, 3-fold dilution series in a 384-well low dead volume microplate (Labcyte, catalog #LP-0200). Once titrations are made, 10 nL of the diluted compounds is acoustically dispensed into a 384-well plate (Corning, catalog #3820) using an Echo 550 (Labcyte).
Each well of the plate receives 3 μL Biotinylated KRAS G12C mixture that had been incubating for six hours and 3 μL of assay buffer using a BioRAPTR (Beckman Coulter) and is incubated at room temperature for 60 minutes. Each well then receives 3 μL of 240 nM recombinant human SOS protein and 9 mM GTP (Sigma, G8877) in assay buffer and is incubated at room temperature for 60 minutes.
The time-resolved fluorescence resonance energy transfer signal of the plate is measured on an Envision (PerkinElmer) plate reader: Excitation filter=340 nm; emission1=495 nm; emission2=520 nm; dichroic mirror=D400/D505; delay time=100 μs. The signal of each well is determined as the ratio of the emission at 520 nm to that at 495 nm. Percent effect of each well is determined after normalization to control wells containing DMSO (no effect) or a saturating concentration of inhibitor (max effect). The apparent effect as a function of compound concentration is fit to a four parameter logistic equation.

[2] = tested on: phosphorylation of Erk in NCI-H358 cells; test: Cellular phospho-ERK assay; assay type: cell-based; settings: 2 hour incubation, ratio of p-Erk vs total Erk, read-out: IC50 (nM) pERK (Cell)
Experimental: NCI-H358 cells (ATCC® CRL-5807™) were cultured in T150 flask in growth medium (RPMI medium 1640-GlutaMAX™-I (ThermoFisher Scientific 61870) containing 10% fetal bovine serum (ThermoFisher Scientific 10091148)). The cells were harvested in growth medium after TrypLE (ThermoFisher scientific 12604021) digestion and were seeded in 384-well collagen coated cell culture plate (Corning 356702) at a density of 15,000 cells/well, and incubated at 37° C., 5% CO2 overnight. The compound dose-response titrations were prepared and appropriate amounts of compounds were dispensed in a 384-well intermediate plate using an Echo 550 liquid handler. RPMI medium 1640-GluiaMAX™-I were added to the intermediate plate and transferred to 384-well cell culture plate, which was incubated at 37° C., 5% CO2 for 2 hours. After removal of medium from the plate, cells were lysed in lysis buffer from Alpha SureFire® Ultra™ Multiplex p-Erk and total Erk assay kit (PerkinElmer MPSU-PIERK) containing Halt™ Protease and Phosphotase inhibitor cocktail (ThermoFisher Scientific 78446) at room temperature with constant shaking at 300 rpm for 30 minutes. The cell lysates were then transferred to OptiPlate-384 plate (PerkinElmer 6005620) and the phosphorylation of Erk and total Erk levels were detected by Alpha SureFire Ultra Multiplex p-Erk kit (PerkinElmer MPSU-PIERK) following the manufacturer's protocol. Assay plates were read on an EnVision Multimode Plate Reader (PerkinElmer), and the ratio of p-Erk vs total Erk in each well was used as the final readout. Dose response curves were analyzed using a 4-parameter logistic model to calculate IC50 values using spotfire software.

T1 sequence (P01116 with tags, fused parts or gaps isoform P01116-2 G12C/C51S/C80L/C118S): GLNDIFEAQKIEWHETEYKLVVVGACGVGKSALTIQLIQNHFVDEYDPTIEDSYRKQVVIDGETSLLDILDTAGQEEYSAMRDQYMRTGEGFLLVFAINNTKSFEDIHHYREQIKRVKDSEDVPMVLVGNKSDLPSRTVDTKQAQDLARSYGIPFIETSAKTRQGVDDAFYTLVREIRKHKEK

| IC50 [1] [nM] | IC50 ([2]; Homo sapiens, NCI-H358, 2 h) [nM] | IC50 [2] [nM] | SMILES |
| --- | --- | --- | --- |
| 793 | 15700 | – | C=CC(=O)N1CCN(c2nc(OC[C@@H]3CCCN3C)nc3c2CCC(c2c(O)cccc2F)O3)C[C@@H]1CC#N (mixture of isomers) [Compound 3, 2-((2S)-1-acryloyl-4-(7-(2-fluoro-6-hydroxyphenyl)-2-(((S)-1-methylpyrrolidin-2-yl)methoxy)-6,7-dihydro-5H-pyrano[2,3-d]pyrimidin-4-yl)piperazin-2-yl)acetonitrile] |
| 395 | – | 9020 | C=CC(=O)N1CCN(c2nc(OC[C@@H]3CCCN3C)nc3c2CCC(c2cccc4ccccc24)O3)C[C@@H]1CC#N (single isomer, unassigned) [Compound 1b] |
| 1410 | 21700 | – | C=CC(=O)N1CCN(c2nc(C(=O)N[C@H](C)CN(C)C)nc3c2CCC(c2cccc4ccccc24)O3)C[C@@H]1CC#N (mixture of isomers) [Compound 11, 4-((S)-4-Acryloyl-3-(cyanomethyl)piperazin-1-yl)-N-((R)-1-(dimethylamino)propan-2-yl)-7-(naphthalen-1-yl)-6,7-dihydro-5H-pyrano[2,3-d]pyrimidine-2-carboxamide] |
| 88.6 | 6350 | – | C=CC(=O)N1CCN(c2nc(OC[C@@H]3CCCN3C)nc3c2CCC(c2cccc4c(F)cccc24)O3)C[C@@H]1CC#N (single isomer, unassigned) [Compound 5a] |
| 817 | 26200 | – | C=CC(=O)N1CCN(c2nc(OC[C@@H]3CCCN3C)nc3c2CCC(c2cccc4cc(O)ccc24)O3)C[C@@H]1CC#N (single isomer, unassigned) [Compound 8a] |
| 2130 | – | 21300 | C=CC(=O)N1CCN(c2nc(OC[C@@H]3CCCN3C)nc3c2CC(C)C(c2cccc4ccccc24)O3)C[C@@H]1CC#N (single isomer, unassigned) [Compound 9b] |
| 84.8 | – | 2380 | C=CC(=O)N1CCN(c2nc(OC[C@@H]3CCCN3C)nc3c2CC(F)(F)C(c2cccc4ccccc24)O3)C[C@@H]1CC#N (single isomer, unassigned) [Compound 7b] |
| 11.4 | – | 578 | C=CC(=O)N1CCN(c2nc(OC[C@@H]3CCCN3C)nc3c2CCC(c2cccc4ccccc24)O3)C[C@@H]1CC#N (single isomer, unassigned) [Compound 1a] |
| 13.8 | – | 394 | C=CC(=O)N1CCN(c2nc(OC[C@@H]3CCCN3C)nc3c2CC(F)(F)C(c2cccc4ccccc24)O3)C[C@@H]1CC#N (single isomer, unassigned) [Compound 7a] |
| 87.1 | 18500 | – | C=CC(=O)N1CCN(c2nc(OC[C@@H]3CCCN3C)nc3c2CCC(c2cccc4ccc5[nH]ncc5c24)O3)C[C@@H]1CC#N (mixture of isomers) [Compound 12, 2-((2S)-4-(7-(3H-benzo[e]indazol-9-yl)-2-(((S)-1-methylpyrrolidin-2-yl)methoxy)-6,7-dihydro-5H-pyrano[2,3-d]pyrimidin-4-yl)-1-acryloylpiperazin-2-yl)acetonitrile] |
| 12.9 | – | 704 | C=CC(=O)N1CCN(c2nc(OC[C@@H]3CCCN3C)nc3c2CC(C)C(c2cccc4ccccc24)O3)C[C@@H]1CC#N (single isomer, unassigned) [Compound 10a] |
| 104 | 19200 | – | C=CC(=O)N1CCN(c2nc(OC[C@@H]3CCCN3C)nc3c2CCC(c2c(Cl)c(C)cc4[nH]ncc24)O3)C[C@@H]1CC#N (single isomer, unassigned) [Compound 4a] |
| 632 | 24100 | – | C=CC(=O)N1CCN(c2nc(OC[C@@H]3CCCN3C)nc3c2CCC(C)(c2cccc4ccccc24)O3)C[C@@H]1CC#N (stereo partly drawn) [Compound 6, 2-((2S)-1-acryloyl-4-(7-methyl-2-(((S)-1-methylpyrrolidin-2-yl)methoxy)-7-(naphthalen-1-yl)-6,7-dihydro-5H-pyrano[2,3-d]pyrimidin-4-yl)piperazin-2-yl)acetonitrile] |
| 259 | – | 13200 | C=CC(=O)N1CCN(c2nc(OC[C@@H]3CCCN3C)nc3c2CC(C)C(c2cccc4ccccc24)O3)C[C@@H]1CC#N (single isomer, unassigned) [Compound 9a] |
| 17.5 | 501 | – | C=CC(=O)N1CCN(c2nc(OC[C@@H]3CCCN3C)nc3c2CCC(c2cccc4cccc(C)c24)O3)C[C@@H]1CC#N (mixture of isomers) [Compound 2, 2-((2S)-1-acryloyl-4-(7-(8-methylnaphthalen-1-yl)-2-(((S)-1-methylpyrrolidin-2-yl)methoxy)-6,7-dihydro-5H-pyrano[2,3-d]pyrimidin-4-yl)piperazin-2-yl)acetonitrile] |
| 2690 | – | 30000 | C=CC(=O)N1CCN(c2nc(OC[C@@H]3CCCN3C)nc3c2CCC(c2c(Cl)c(C)cc4[nH]ncc24)O3)C[C@@H]1CC#N (single isomer, unassigned) [Compound 4b] |
| 153 | – | 5230 | C=CC(=O)N1CCN(c2nc(OC[C@@H]3CCCN3C)nc3c2CC(C)C(c2cccc4ccccc24)O3)C[C@@H]1CC#N (single isomer, unassigned) [Compound 10b] |
| 195 | – | 10300 | C=CC(=O)N1CCN(c2nc(OC[C@@H]3CCCN3C)nc3c2CCC(c2cccc4c(F)cccc24)O3)C[C@@H]1CC#N (single isomer, unassigned) [Compound 5b] |

Reference: US20230416266A1, “6,7-DIHYDRO-PYRANO[2,3-d]PYRIMIDINE INHIBITORS OF KRAS G12C MUTANT” (Merck Sharp & Dohme Corp., priority 2020, published 2023)
